Data taken from ChEMBL document CHEMBL3044951, “Synthesis and antimicrobial activity of dimethyl- and trimethyl-substituted phosphonium salts with alkyl chains of various lengths” (1994).
Activity calls are given as the source filed them. No cut-off for these calls is given here.

Key:
Escherichia coli [1] = assay: Antibacterial activity against Escherichia coli IFO 3806 by spread plate method; assay type: functional
Staphylococcus aureus [2] = assay: Bacteriostatic activity against methicillin-susceptible Staphylococcus aureus IFO 12732 by spread plate method; assay type: functional
Trichoderma harzianum = assay: Antifungal activity against Trichoderma harzianum by spread plate method; assay type: functional
Rhizopus stolonifer = assay: Antifungal activity against Rhizopus stolonifer ATCC 6227 by spread plate method; assay type: functional
Penicillium citrinum = assay: Antifungal activity against Penicillium citrinum ATCC 9849 by spread plate method; assay type: functional
Geotrichum candidum = assay: Antifungal activity against Galactomyces geotrichum IFO 6454 by spread plate method; assay type: functional
Debaryomyces hansenii = assay: Antifungal activity against Candida famata IFO 0380 by spread plate method; assay type: functional
Pseudomonas aeruginosa = assay: Antibacterial activity against Pseudomonas aeruginosa ATCC 27853 by spread plate method; assay type: functional
Klebsiella aerogenes = assay: Antibacterial activity against Enterobacter aerogenes by spread plate method; assay type: functional
Escherichia coli [3] = assay: Antibacterial activity against Escherichia coli NIHJ by spread plate method; assay type: functional
Bacillus spizizenii = assay: Bacteriostatic activity against Bacillus subtilis subsp. spizizenii ATCC 6633 by spread plate method; assay type: functional
Staphylococcus aureus [4] = assay: Bacteriostatic activity against methicillin-resistant Staphylococcus aureus by spread plate method; assay type: functional
Staphylococcus aureus [5] = assay: Bacteriostatic activity against methicillin-susceptible Staphylococcus aureus 209P by spread plate method; assay type: functional
Staphylococcus aureus [6] = assay: Bactericidal activity against methicillin-susceptible Staphylococcus aureus IFO 12732 assessed as log10 reduction in viable cell count at 28 uM up to 120 min by agar dilution test; assay type: functional
Escherichia coli [7] = assay: Bactericidal activity against Escherichia coli IFO 3806 assessed as log10 reduction in viable cell count at 2.8 to 280 uM after 30 to 120 min by agar dilution test; assay type: functional, organism-based
Staphylococcus aureus [8] = assay: Bactericidal activity against methicillin-susceptible Staphylococcus aureus IFO 12732 assessed as log10 reduction in viable cell count at 0.28 uM by agar dilution test; assay type: functional, organism-based
Escherichia coli [9] = assay: Bactericidal activity against Escherichia coli IFO 3806 assessed as log10 reduction in viable cell count at 2.8 uM up to 120 min by agar dilution test; assay type: functional
Staphylococcus aureus [10] = assay: Bactericidal activity against methicillin-susceptible Staphylococcus aureus IFO 12732 assessed as log10 reduction in viable cell count at 2.8 uM up to 30 min by agar dilution test; assay type: functional, organism-based
Escherichia coli [11] = assay: Bactericidal activity against Escherichia coli IFO 3806 assessed as log10 reduction in viable cell count at 0.28 to 280 uM up to 30 min by agar dilution test; assay type: functional, organism-based
Staphylococcus aureus [12] = assay: Bactericidal activity against methicillin-susceptible Staphylococcus aureus IFO 12732 assessed as log10 reduction in viable cell count at 28 uM up to 60 min by agar dilution test; assay type: functional, organism-based
Escherichia coli [13] = assay: Bactericidal activity against Escherichia coli IFO 3806 assessed as log10 reduction in viable cell count at 280 uM after 30 to 120 min by agar dilution test; assay type: functional, organism-based
Staphylococcus aureus [14] = assay: Bactericidal activity against methicillin-susceptible Staphylococcus aureus IFO 12732 assessed as log10 reduction in viable cell count at 280 uM after 30 to 120 min by agar dilution test; assay type: functional, organism-based
Escherichia coli [15] = assay: Bactericidal activity against Escherichia coli IFO 3806 assessed as log10 reduction in viable cell count at 28 to 280 uM after 30 to 120 min by agar dilution test; assay type: functional, organism-based
Staphylococcus aureus [16] = assay: Bactericidal activity against methicillin-susceptible Staphylococcus aureus IFO 12732 assessed as log10 reduction in viable cell count at 280 uM up to 30 min by agar dilution test; assay type: functional, organism-based
Staphylococcus aureus [17] = assay: Bactericidal activity against methicillin-susceptible Staphylococcus aureus IFO 12732 assessed as log10 reduction in viable cell count at 0.28 to 280 uM up to 30 min by agar dilution test; assay type: functional, organism-based
Staphylococcus aureus [18] = assay: Bactericidal activity against methicillin-susceptible Staphylococcus aureus IFO 12732 assessed as log10 reduction in viable cell count at 2.8 uM up to 120 min by agar dilution test; assay type: functional
Staphylococcus aureus [19] = assay: Bactericidal activity against methicillin-susceptible Staphylococcus aureus IFO 12732 assessed as log10 reduction in viable cell count at 2.8 to 280 uM after 30 to 120 min by agar dilution test; assay type: functional, organism-based

SMILES	MIC (Escherichia coli [1])	MIC (Staphylococcus aureus [2])	MIC (Trichoderma harzianum)	MIC (Rhizopus stolonifer)	MIC (Penicillium citrinum)	MIC (Geotrichum candidum)	MIC (Debaryomyces hansenii)	MIC (Pseudomonas aeruginosa)	MIC (Klebsiella aerogenes)	MIC (Escherichia coli [3])	MIC (Bacillus spizizenii)	MIC (Staphylococcus aureus [4])	MIC (Staphylococcus aureus [5])	also measured
CCCCCCCCCCCCCCCCCC[P+](C)(C)CCCCCCCCCCCCCCCCCC.[Cl-] [DIOCTADECYLDIMETHYLPHOSPHONIUM CHLORIDE]	> 200 µg/mL	100 µg/mL	> 200 µg/mL	> 200 µg/mL	> 200 µg/mL	> 200 µg/mL	> 200 µg/mL	> 200 µg/mL	> 200 µg/mL	> 200 µg/mL	> 200 µg/mL	> 200 µg/mL	100 µg/mL	Activity (Staphylococcus aureus [6]): >99.99%; Activity (Escherichia coli [7]): Active
CCCCCCCCCC[P+](C)(C)Cc1ccc(CC)cc1.[Cl-] [DECYL(4-ETHYLBENZYL)DIMETHYLPHOSPHONIUM CHLORIDE]	12.5 µg/mL	0.78 µg/mL	> 200 µg/mL	> 200 µg/mL	200 µg/mL	6.25 µg/mL	12.5 µg/mL	200 µg/mL	25 µg/mL	12.5 µg/mL	1.56 µg/mL	1.56 µg/mL	0.78 µg/mL	–
CCCCCCCCCCCCCCCCCC[P+](C)(C)C.[Cl-] [OCTADECYLTRIMETHYLPHOSPHONIUM CHLORIDE]	> 200 µg/mL	0.78 µg/mL	> 200 µg/mL	> 200 µg/mL	> 200 µg/mL	> 200 µg/mL	12.5 µg/mL	> 200 µg/mL	> 200 µg/mL	> 200 µg/mL	3.13 µg/mL	1.56 µg/mL	0.78 µg/mL	Activity (Staphylococcus aureus [8]): inactive; Activity (Escherichia coli [9]): >99.9%; Activity (Staphylococcus aureus [10]): Active; Activity (Escherichia coli [11]): Active
CCCCCCCCCCCCCCCCCC[N+](C)(C)C	–	–	–	–	–	–	–	–	–	–	–	–	–	Activity (Staphylococcus aureus [12]): Active
CCCCCCCCCC[P+](C)(C)C.[Cl-] [DECYLTRIMETHYLPHOSPHONIUM CHLORIDE]	200 µg/mL	3.13 µg/mL	> 200 µg/mL	> 200 µg/mL	> 200 µg/mL	> 200 µg/mL	> 200 µg/mL	> 200 µg/mL	> 200 µg/mL	200 µg/mL	50 µg/mL	50 µg/mL	3.13 µg/mL	Activity (Escherichia coli [13]): inactive; Activity (Staphylococcus aureus [14]): inactive
CCCC[P+](CCCC)(CCCC)Cc1ccc(CC)cc1.[Cl-] [TRIBUTYL(4-ETHYLBENZYL)PHOSPHONIUM CHLORIDE]	> 200 µg/mL	50 µg/mL	> 200 µg/mL	> 200 µg/mL	> 200 µg/mL	> 200 µg/mL	> 200 µg/mL	> 200 µg/mL	> 200 µg/mL	> 200 µg/mL	100 µg/mL	50 µg/mL	50 µg/mL	–
CCCCCCCCCCCCCC[P+](C)(C)Cc1ccc(CC)cc1.[Cl-] [(4-ETHYLBENZYL)DIMETHYL(TETRADECYL)PHOSPHONIUM CHLORIDE]	200 µg/mL	1.56 µg/mL	> 200 µg/mL	> 200 µg/mL	> 200 µg/mL	6.25 µg/mL	6.25 µg/mL	200 µg/mL	200 µg/mL	200 µg/mL	1.56 µg/mL	1.56 µg/mL	1.56 µg/mL	–
CCCCCCCCCCCCCCCCCC[P+](C)(C)Cc1ccc(CC)cc1.[Cl-] [(4-ETHYLBENZYL)DIMETHYL(OCTADECYL)PHOSPHONIUM CHLORIDE]	> 200 µg/mL	12.5 µg/mL	> 200 µg/mL	> 200 µg/mL	> 200 µg/mL	> 200 µg/mL	> 200 µg/mL	> 200 µg/mL	> 200 µg/mL	> 200 µg/mL	25 µg/mL	25 µg/mL	12.5 µg/mL	–
CCCCCCCCCCCCCC[N+](C)(C)C.[Cl-]	–	–	–	–	–	–	–	–	–	–	–	–	–	Activity (Staphylococcus aureus [6]): >99.9%; Activity (Escherichia coli [15]): Active; Activity (Staphylococcus aureus [16]): Active
CCCCCCCCCCCCCC[P+](C)(C)C.[Cl-] [TETRADECYLTRIMETHYLPHOSPHONIUM CHLORIDE]	12.5 µg/mL	0.2 µg/mL	200 µg/mL	200 µg/mL	200 µg/mL	50 µg/mL	200 µg/mL	200 µg/mL	100 µg/mL	12.5 µg/mL	0.2 µg/mL	1.56 µg/mL	0.2 µg/mL	Activity (Escherichia coli [15]): Active; Activity (Staphylococcus aureus [12]): Active; Activity (Escherichia coli [11]): Active; Activity (Staphylococcus aureus [17]): Active
CCCCCCCCCCCCCC[P+](C)(C)CCCCCCCCCCCCCC.[Cl-] [DITETRADECYLDIMETHYLPHOSPHONIUM CHLORIDE]	> 200 µg/mL	12.5 µg/mL	> 200 µg/mL	> 200 µg/mL	> 200 µg/mL	> 200 µg/mL	> 200 µg/mL	> 200 µg/mL	> 200 µg/mL	> 200 µg/mL	100 µg/mL	200 µg/mL	12.5 µg/mL	Activity (Escherichia coli [7]): Active; Activity (Staphylococcus aureus [18]): >99.999%; Activity (Staphylococcus aureus [16]): Active; Activity (Staphylococcus aureus [12]): Active
CCCCCCCCCC[N+](C)(C)CCCCCCCCCC	–	–	–	–	–	–	–	–	–	–	–	–	–	Activity (Escherichia coli [9]): inactive
CCCCCCCCCC[P+](C)(C)CCCCCCCCCC.[Cl-] [DIDECYLDIMETHYLPHOSPHONIUM CHLORIDE]	3.13 µg/mL	0.78 µg/mL	200 µg/mL	> 200 µg/mL	100 µg/mL	3.13 µg/mL	1.56 µg/mL	200 µg/mL	3.13 µg/mL	3.13 µg/mL	0.78 µg/mL	0.78 µg/mL	0.78 µg/mL	Activity (Escherichia coli [7]): Active; Activity (Staphylococcus aureus [19]): Active
